# Results taken from ChEMBL document CHEMBL1201862, “PubChem BioAssay data set” (2004).
#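 Assay format: 96-well plates, 48-hour exposure. GI50 = concentration required for 50% inhibition of growth.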 Active and inactive are the calls of the source. Cut-off read from the data, not from the text of the source: active = GI50 up to about 1.1 µM and inactive = higher.
# How the values were obtained:
# Test in all cases: NCI-60 cell line screen, 48 h
# [1] = test system: RPMI-8226
# [2] = test system: MOLT-4
# [3] = test system: ACHN
# [4] = test system: A498
# [5] = test system: Malme-3M
# [6] = test system: NCI-H226
# [7] = test system: SK-MEL-2
# [8] = test system: T47D
# [9] = test system: HCT-116
# [10] = test system: MDA-MB-231
# [11] = test system: KM12
# [12] = test system: TK-10
# [13] = test system: SW-620
# [14] = test system: K562
# [15] = test system: OVCAR-3
# [16] = test system: SF-268
# [17] = test system: 786-0
# [18] = test system: SK-OV-3
# [19] = test system: UACC-62
# [20] = test system: SR
# [21] = test system: HT-29
# [22] = test system: SNB-19
# [23] = test system: SK-MEL-5
# [24] = test system: CCRF-CEM
# [25] = test system: PC-3
# [26] = test system: M14
# [27] = test system: NCI-H23
# [28] = test system: DU-145
# [29] = test system: OVCAR-8
# [30] = test system: IGROV-1
# [31] = test system: HCT-15
# [32] = test system: SN12C
# [33] = test system: UACC-257
# [34] = test system: OVCAR-4
# [35] = test system: BT-549
# [36] = test system: A549
# [37] = test system: COLO 205
# [38] = test system: MDA-MB-435
# [39] = test system: HL-60
# [40] = test system: OVCAR-5
# [41] = test system: EKVX
# [42] = test system: U-251
# [43] = test system: MCF7
# [44] = test system: HOP-92
# [45] = test system: NCI-H460
# [46] = test system: SF-539
# [47] = test system: CAKI-1
# [48] = test system: Hs-578T
# [49] = test system: SNB-75
# [50] = test system: HCC 2998
# [51] = test system: HOP-62
# [52] = test system: MDA-N
# [53] = test system: SF-295
# [54] = test system: LOX IMVI
# [55] = test system: NCI-H522
# [56] = test system: SK-MEL-28
# [57] = test system: RXF 393
# [58] = test system: NCI/ADR-RES
# [59] = test system: UO-31
structure (smiles),measurement,setting,value
C/C(=C1/N=C(c2ccccc2)OC1=O)c1ccccc1,GI50,[1],23.3 µM (inactive)
same,GI50,[2],95.1 µM (inactive)
same,GI50,[3],74.6 µM (inactive)
same,GI50,[4],> 100 µM (inactive)
same,GI50,[5],53.2 µM (inactive)
same,GI50,[6],> 100 µM (inactive)
same,GI50,[7],> 100 µM (inactive)
same,GI50,[8],> 100 µM (inactive)
same,GI50,[9],> 100 µM (inactive)
same,GI50,[10],> 100 µM (inactive)
same,GI50,[11],61.4 µM (inactive)
same,GI50,[12],87.3 µM (inactive)
same,GI50,[13],57.5 µM (inactive)
same,GI50,[14],> 100 µM (inactive)
same,GI50,[15],74.5 µM (inactive)
same,GI50,[16],> 100 µM (inactive)
same,GI50,[17],> 100 µM (inactive)
same,GI50,[18],> 100 µM (inactive)
same,GI50,[19],> 100 µM (inactive)
same,GI50,[20],39.5 µM (inactive)
same,GI50,[21],> 100 µM (inactive)
same,GI50,[22],> 100 µM (inactive)
same,GI50,[23],> 100 µM (inactive)
same,GI50,[24],33.4 µM (inactive)
same,GI50,[25],> 100 µM (inactive)
same,GI50,[26],> 100 µM (inactive)
same,GI50,[27],> 100 µM (inactive)
same,GI50,[28],> 100 µM (inactive)
same,GI50,[29],> 100 µM (inactive)
same,GI50,[30],68.2 µM (inactive)
same,GI50,[31],99.1 µM
same,GI50,[32],> 100 µM (inactive)
same,GI50,[33],> 100 µM (inactive)
same,GI50,[34],> 100 µM (inactive)
same,GI50,[35],> 100 µM (inactive)
same,GI50,[36],> 100 µM (inactive)
same,GI50,[37],> 100 µM (inactive)
same,GI50,[38],87.3 µM (inactive)
same,GI50,[39],25.6 µM (inactive)
same,GI50,[40],> 100 µM (inactive)
same,GI50,[41],> 100 µM (inactive)
same,GI50,[42],> 100 µM (inactive)
same,GI50,[43],82 µM (inactive)
same,GI50,[44],> 100 µM (inactive)
same,GI50,[45],> 100 µM (inactive)
same,GI50,[46],48.6 µM (inactive)
same,GI50,[47],> 100 µM (inactive)
same,GI50,[48],46.3 µM (inactive)
same,GI50,[49],> 100 µM (inactive)
same,GI50,[50],> 100 µM (inactive)
same,GI50,[51],> 100 µM (inactive)
same,GI50,[52],> 100 µM (inactive)
same,GI50,[53],76.2 µM (inactive)
same,GI50,[54],33.5 µM (inactive)
same,GI50,[55],85.3 µM (inactive)
same,GI50,[56],> 100 µM (inactive)
Cc1nc(O)nc(N/N=C/c2ccc(Cl)cc2)c1C(=O)NC(C)(CO)CO,GI50,[1],> 100 µM (inactive)
same,GI50,[2],> 100 µM (inactive)
same,GI50,[3],> 100 µM (inactive)
same,GI50,[4],> 100 µM (inactive)
same,GI50,[5],> 100 µM (inactive)
same,GI50,[6],> 100 µM (inactive)
same,GI50,[7],> 100 µM (inactive)
same,GI50,[57],> 100 µM (inactive)
same,GI50,[8],60.7 µM (inactive)
same,GI50,[9],> 100 µM (inactive)
same,GI50,[11],> 100 µM (inactive)
same,GI50,[12],> 100 µM (inactive)
same,GI50,[13],> 100 µM (inactive)
same,GI50,[14],> 100 µM (inactive)
same,GI50,[15],> 100 µM (inactive)
same,GI50,[16],> 100 µM (inactive)
same,GI50,[58],> 100 µM (inactive)
same,GI50,[18],> 100 µM (inactive)
same,GI50,[19],> 100 µM (inactive)
same,GI50,[20],> 100 µM (inactive)
same,GI50,[21],> 100 µM (inactive)
same,GI50,[22],> 100 µM (inactive)
same,GI50,[23],> 100 µM (inactive)
same,GI50,[24],> 100 µM (inactive)
same,GI50,[25],> 100 µM (inactive)
same,GI50,[26],> 100 µM (inactive)
same,GI50,[27],> 100 µM (inactive)
same,GI50,[28],> 100 µM (inactive)
same,GI50,[29],> 100 µM (inactive)
same,GI50,[30],> 100 µM (inactive)
same,GI50,[59],> 100 µM (inactive)
same,GI50,[31],> 100 µM
same,GI50,[32],> 100 µM (inactive)
same,GI50,[33],> 100 µM (inactive)
same,GI50,[34],> 100 µM (inactive)
same,GI50,[35],> 100 µM (inactive)
same,GI50,[37],> 100 µM (inactive)
same,GI50,[38],> 100 µM (inactive)
same,GI50,[39],> 100 µM (inactive)
same,GI50,[40],> 100 µM (inactive)
same,GI50,[41],> 100 µM (inactive)
same,GI50,[42],> 100 µM (inactive)
same,GI50,[43],> 100 µM (inactive)
same,GI50,[44],> 100 µM (inactive)
same,GI50,[45],> 100 µM (inactive)
same,GI50,[47],> 100 µM (inactive)
same,GI50,[48],> 100 µM (inactive)
same,GI50,[49],> 100 µM (inactive)
same,GI50,[50],> 100 µM (inactive)
same,GI50,[51],> 100 µM (inactive)
same,GI50,[52],> 100 µM (inactive)
same,GI50,[53],> 100 µM (inactive)
same,GI50,[54],> 100 µM (inactive)
same,GI50,[56],> 100 µM (inactive)
NCOC(=O)Cc1ccc(Br)cc1,GI50,[1],> 100 µM (inactive)
same,GI50,[2],17.4 µM (inactive)
same,GI50,[3],> 100 µM (inactive)
same,GI50,[4],> 100 µM (inactive)
same,GI50,[5],> 100 µM (inactive)
same,GI50,[6],> 100 µM (inactive)
same,GI50,[7],> 100 µM (inactive)
same,GI50,[57],> 100 µM (inactive)
same,GI50,[8],> 100 µM (inactive)
same,GI50,[9],> 100 µM (inactive)
same,GI50,[10],> 100 µM (inactive)
same,GI50,[12],> 100 µM (inactive)
same,GI50,[13],> 100 µM (inactive)
same,GI50,[14],> 100 µM (inactive)
same,GI50,[15],> 100 µM (inactive)
same,GI50,[16],> 100 µM (inactive)
same,GI50,[58],> 100 µM (inactive)
same,GI50,[17],> 100 µM (inactive)
same,GI50,[18],> 100 µM (inactive)
same,GI50,[19],> 100 µM (inactive)
same,GI50,[20],0.383 µM (active)
same,GI50,[21],> 100 µM (inactive)
same,GI50,[22],> 100 µM (inactive)
same,GI50,[23],> 100 µM (inactive)
same,GI50,[24],80 µM (inactive)
same,GI50,[25],> 100 µM (inactive)
same,GI50,[26],> 100 µM (inactive)
same,GI50,[27],> 100 µM (inactive)
same,GI50,[28],> 100 µM (inactive)
same,GI50,[29],> 100 µM (inactive)
same,GI50,[30],> 100 µM (inactive)
same,GI50,[59],> 100 µM (inactive)
same,GI50,[31],> 100 µM
same,GI50,[32],> 100 µM (inactive)
same,GI50,[33],> 100 µM (inactive)
same,GI50,[35],> 100 µM (inactive)
same,GI50,[36],> 100 µM (inactive)
same,GI50,[37],> 100 µM (inactive)
same,GI50,[39],42.3 µM (inactive)
same,GI50,[40],> 100 µM (inactive)
same,GI50,[41],> 100 µM (inactive)
same,GI50,[42],> 100 µM (inactive)
same,GI50,[43],> 100 µM (inactive)
same,GI50,[44],> 100 µM (inactive)
same,GI50,[45],> 100 µM (inactive)
same,GI50,[46],> 100 µM (inactive)
same,GI50,[48],> 100 µM (inactive)
same,GI50,[49],> 100 µM (inactive)
same,GI50,[51],> 100 µM (inactive)
same,GI50,[52],> 100 µM (inactive)
same,GI50,[53],> 100 µM (inactive)
same,GI50,[54],> 100 µM (inactive)
same,GI50,[55],> 100 µM (inactive)
same,GI50,[56],> 100 µM (inactive)
